Reference: patent US6136823A, “Pyridonecarboxylic acid derivatives or salts thereof and drugs containing the same as the active ingredient” (Wakunaga Pharmaceutical Co., Ltd., priority 1996, dated 2000)
Values after ≈ are worked out from the molar mass of the structure shown. Where two headings read alike, the source gives them in different places.

Assays:
S. aureus 209P = test: Antibacterial action, MIC against standard strain S. aureus 209P (standard method of the Japan Chemotherapeutic Association); assay type: cell-based; conditions: Staphylococcus aureus, read-out: MIC S.a.
Protocol: (§1) The minimum inhibitory concentrations (MIC; μg/ml) of specimen compounds against standard strains [S. aureus 209P (S.a.), S. epidermidis IFO 12293 (S.e.) and P. aeruginosa IFO 3445 (P.a.)] were determined in accordance with the standard method (CHEMOTHERAPY, 29(1), 76, 1981) prescribed by The Japan Chemotherapeutic Association.

S. epidermidis IFO 12293 = test: Antibacterial action, MIC against standard strain S. epidermidis IFO 12293; assay type: cell-based; conditions: Staphylococcus epidermidis
Protocol: as §1

P. aeruginosa IFO 3445 = test: Antibacterial action, MIC against standard strain P. aeruginosa IFO 3445; assay type: cell-based; conditions: Pseudomonas aeruginosa
Protocol: as §1

[1] = Urinary recovery rate upon oral administration to rats; assay type: in vivo, male SD rats; conditions: urine, rat, 20 mg/kg or 10 mg/kg, paper disk method; for dose excreted at 6 h: 0-6 hours; for dose excreted at 24 h: 6-24 hours
Protocol: (§2) The recovery rates in both urine and bile of compounds according to the present invention upon oral administration to rats were determined to evaluate their absorbability and excretory behavior. (a) Urinary Recovery Rate Male SD rats aged 6 weeks fasted overnight were forced to orally administer a 0.5% methyl cellulose suspension (20 mg/10 ml/kg or 10 mg/10 ml/kg) of each of specimen compounds using a peroral sound. Urine was collected twice in the course of from 0 up to 6 hours and from 6 up to 24 hours after the administration. The concentration of the specimen compound in the urine was determined by a paper disk method using Bacillus subtilis ATCC 6633 as a tester strain to find its recovery rate in urine.

[2] = Biliary recovery rate upon oral administration to rats; assay type: in vivo, male SD rats; conditions: bile, rat, 20 mg/kg or 10 mg/kg, 0-24 hours, after hydrolysis with the alkali
Protocol: (§3) The recovery rates in both urine and bile of compounds according to the present invention upon oral administration to rats were determined to evaluate their absorbability and excretory behavior.
(2) Biliary Recovery Rate
(§4) A polyethylene tube was inserted into the common bile ducts of male SD rats aged 6 weeks fasted overnight under etherization. After the anesthetic wore away, the rats were forced to orally administer each of the specimen compounds in the same manner as in the item (a) to collect bile till 24 hours after the administration. The concentration of the specimen compound in the bile was determined in the same manner as in the item (a) after hydrolysis with an alkali (0.1N, NaOH, 37° C., 1 hour) or without being subjected to any treatment, thereby finding its recovery rate in bile.

[3] = Total recovery rate in urine and bile upon oral administration to rats; assay type: in vivo, male SD rats; conditions: rat, 20 mg/kg or 10 mg/kg, urine plus bile, 0-24 hours
Protocol: as §3
as §2, with “Male” for “The recovery rates in both urine and bile of compounds according to the present invention upon oral administration to rats were determined to evaluate their absorbability and excretory behavior. (a) Urinary Recovery Rate Male”
as §4

[4] = IFO12293, S. epidermidis IFO 12293, read-out: MIC S.e.
[5] = IFO3445, P. aeruginosa IFO 3445, read-out: MIC P.a.

Row | SMILES | MIC (S. aureus 209P; 209P) | MIC (S. epidermidis IFO 12293; IFO12293, read-out: MIC S.e.) | MIC (P. aeruginosa IFO 3445; IFO3445, read-out: MIC P.a.) | MIC (S. aureus 209P; S. aureus 209P) | MIC (S. epidermidis IFO 12293; [4]) | MIC (P. aeruginosa IFO 3445; [5]) | dose excreted at 6 h [1] | dose excreted at 24 h [1] | dose excreted at 24 h [2] | dose excreted at 24 h [3]
1 | O=C(O)c1cn(C2CC2)c2cc(N3CCNCC3)c(F)cc2c1=O [Cyprofloxacin, reference compound] | 0.1 µg/mL (≈ 0.302 µM) | 0.78 µg/mL (≈ 2.35 µM) | 0.39 µg/mL (≈ 1.18 µM) | – | – | – | – | – | – | –
2 | Nc1cc(-n2cc(C(=O)O)c(=O)c3cc(F)c(N)c(Cl)c32)c(F)cc1F [Example 11, 7-Amino-1-(5-amino-2,4-difluorophenyl)-8-chloro-6-fluoro-4-oxo-1,4-dihydroquinoline-3-carboxylic Acid] | – | – | – | 0.013 µg/mL (≈ 0.0339 µM) | 0.05 µg/mL (≈ 0.13 µM) | 0.2 µg/mL (≈ 0.521 µM) | 9.7% | 13.7% | 90% | 113%
3 | Cc1c(N)c(F)cc2c(=O)c(C(=O)O)cn(-c3cc(N)c(F)cc3F)c12 [Example 12, 7-Amino-1-(5-amino-2,4-difluorophenyl)-6-fluoro-8-methyl-4-oxo-1,4-dihydroquinoline-3-carboxylic Acid] | – | – | – | 0.013 µg/mL (≈ 0.0358 µM) | 0.05 µg/mL (≈ 0.138 µM) | 0.1 µg/mL (≈ 0.275 µM) | 4.8% | 10.8% | 81.7% | 97.3%
4 | CNc1c(F)cc2c(=O)c(C(=O)O)cn(-c3cc(N)c(F)cc3F)c2c1Cl [Example 14, 1-(5-Amino-2,4-difluorophenyl)-8-chloro-6-fluoro-7-methylamino-4-oxo-1,4-dihydroquinoline-3-carboxylic Acid] | – | – | – | 0.013 µg/mL (≈ 0.0327 µM) | 0.025 µg/mL (≈ 0.0629 µM) | 0.2 µg/mL (≈ 0.503 µM) | 1.2% | 2.6% | 103% | 107%
5 | CNc1c(F)cc2c(=O)c(C(=O)O)cn(-c3cc(N)c(F)cc3F)c2c1C [Example 16, 1-(5-Amino-2,4-difluorophenyl)-6-fluoro-8-methyl-7-methylamino-4-oxo-1,4-dihydroquinoline-3-carboxylic Acid] | – | – | – | 0.013 µg/mL (≈ 0.0345 µM) | 0.05 µg/mL (≈ 0.133 µM) | 0.39 µg/mL (≈ 1.03 µM) | – | – | – | –
6 | CNc1c(F)cc2c(=O)c(C(=O)O)cn(-c3cc(N)c(F)cc3Cl)c2c1Cl [Example 19, 1-(5-Amino-2-chloro-4-fluorophenyl)-8-chloro-6-fluoro-7-methylamino-4-oxo-1,4-dihydroquinoline-3-carboxylic Acid] | – | – | – | 0.013 µg/mL (≈ 0.0314 µM) | 0.05 µg/mL (≈ 0.121 µM) | 0.39 µg/mL (≈ 0.942 µM) | – | – | – | –
7 | CNc1c(F)cc2c(=O)c(C(=O)O)cn(-c3nc(N)c(F)cc3F)c2c1Cl [Example 28, 1-(6-Amino-3,5-difluoropyridin-2-yl)-8-chloro-6-fluoro-7-methylamino-4-oxo-1,4-dihydroquinoline-3-carboxylic Acid] | – | – | – | 0.006 µg/mL (≈ 0.015 µM) | 0.025 µg/mL (≈ 0.0627 µM) | 0.39 µg/mL (≈ 0.978 µM) | – | – | – | –
8 | CNc1c(F)cc2c(=O)c(C(=O)O)cn(-c3nc(N)c(F)cc3F)c2c1Br [Example 30, 1-(6-Amino-3,5-difluoropyridin-2-yl)-8-bromo-6-fluoro-7-methylamino-4-oxo-1,4-dihydroquinoline-3-carboxylic Acid] | – | – | – | 0.006 µg/mL (≈ 0.0135 µM) | 0.025 µg/mL (≈ 0.0564 µM) | 0.78 µg/mL (≈ 1.76 µM) | – | – | – | –
9 | CNc1c(F)c(C)c2c(=O)c(C(=O)O)cn(-c3cc(N)c(F)cc3F)c2c1Cl [Example 56, 1-(5-Amino-2,4-difluorophenyl)-8-chloro-6-fluoro-5-methyl-7-methylamino-4-oxo-1,4-dihydroquinoline-3-carboxylic Acid] | – | – | – | 0.006 µg/mL (≈ 0.0146 µM) | 0.013 µg/mL (≈ 0.0316 µM) | 0.2 µg/mL (≈ 0.486 µM) | – | – | – | –
10 | CNc1c(F)c(C)c2c(=O)c(C(=O)O)cn(-c3cc(N)c(F)cc3F)c2c1C [Example 59, 1-(5-Amino-2,4-difluorophenyl)-6-fluoro-5,8-dimethyl-7-methylamino-4-oxo-1,4-dihydroquinoline-3-carboxylic Acid] | – | – | – | 0.006 µg/mL (≈ 0.0153 µM) | 0.013 µg/mL (≈ 0.0332 µM) | 0.39 µg/mL (≈ 0.997 µM) | – | – | – | –
11 | CNc1c(F)c(N)c2c(=O)c(C(=O)O)cn(-c3cc(N)c(F)cc3F)c2c1Cl [Example 70, 5-Amino-1-(5-amino-2,4-difluorophenyl)-8-chloro-6-fluoro-7-methylamino-4-oxo-1,4-dihydroquinoline-3-carboxylic Acid] | – | – | – | 0.013 µg/mL (≈ 0.0315 µM) | 0.025 µg/mL (≈ 0.0606 µM) | 0.2 µg/mL (≈ 0.485 µM) | – | – | – | –
12 | C=CCNc1c(F)cc2c(=O)c(C(=O)O)cn(-c3nc(N)c(F)cc3F)c2c1Cl [Example 77, 7-Allylamino-1-(6-amino-3,5-difluoropyridin-2-yl)-8-chloro-6-fluoro-4-oxo-1,4-dihydroquinoline-3-carboxylic Acid] | – | – | – | 0.013 µg/mL (≈ 0.0306 µM) | 0.013 µg/mL (≈ 0.0306 µM) | 0.39 µg/mL (≈ 0.918 µM) | – | – | – | –
13 | Cc1c(NCCCO)c(F)cc2c(=O)c(C(=O)O)cn(-c3cc(N)c(F)cc3F)c12 [Example 88, 1-(5-Amino-2,4-difluorophenyl)-8-methyl-6-fluoro-7-(3-hydroxy-n-propylamino)-4-oxo-1,4-dihydroquinoline-3-carboxylic Acid] | – | – | – | 0.013 µg/mL (≈ 0.0309 µM) | 0.025 µg/mL (≈ 0.0593 µM) | 0.78 µg/mL (≈ 1.85 µM) | – | – | – | –
14 | CNc1c(F)c(O)c2c(=O)c(C(=O)O)cn(-c3cc(N)c(F)cc3F)c2c1C [Example 98, 1-(5-Amino-2,4-difluorophenyl)-6-fluoro-5-hydroxy-8-methyl-7-methylamino-4-oxo-1,4-dihydroquinoline-3-carboxylic Acid] | – | – | – | 0.013 µg/mL (≈ 0.0331 µM) | 0.013 µg/mL (≈ 0.0331 µM) | 0.39 µg/mL (≈ 0.992 µM) | – | – | – | –
15 | COc1c(F)cc2c(=O)c(C(=O)O)cn(-c3cc(N)c(F)cc3F)c2c1C [Example 99, 1-(5-Amino-2,4-difluorophenyl)-6-fluoro-7-methoxy-8-methyl-4-oxo-1,4-dihydroquinoline-3-carboxylic Acid] | – | – | – | 0.013 µg/mL (≈ 0.0344 µM) | 0.05 µg/mL (≈ 0.132 µM) | 0.78 µg/mL (≈ 2.06 µM) | – | – | – | –
16 | C[C@H]1COc2c(N3CCN(C)CC3)c(F)cc3c(=O)c(C(=O)O)cn1c23 [Levofloxacin, reference compound] | – | – | – | 0.2 µg/mL (≈ 0.553 µM) | 0.39 µg/mL (≈ 1.08 µM) | 0.78 µg/mL (≈ 2.16 µM) | 21.2% | 13.7% | 48.3% | 83.2%
17 | Nc1cc(-n2cc(C(=O)O)c(=O)c3cc(F)c(N4CC(N)C4)c(Cl)c32)c(F)cc1F [Referential compound, 7(3-Aminoazetidin-1-yl)-1-(5-amino-2,4-difluoro-phenyl)-8-chloro-6-fluoo-4-oxo-1,4-dihydroquinoline-3-carboxylic acid, reference compound] | – | – | – | – | – | – | 7.6% | 2.7% | 11.1% | 21.5%
18 | C[C@@H]1CN(c2c(F)c(N)c3c(=O)c(C(=O)O)cn(C4CC4)c3c2F)C[C@H](C)N1 [Sparfloxacin, reference compound] | – | – | – | 0.05 µg/mL (≈ 0.127 µM) | 0.2 µg/mL (≈ 0.51 µM) | 0.78 µg/mL (≈ 1.99 µM) | – | – | – | –
19 | NC1CCN(c2nc3c(cc2F)c(=O)c(C(=O)O)cn3-c2ccc(F)cc2F)C1 (stereo not drawn) [Tosufloxacin, reference compound] | – | – | – | 0.05 µg/mL (≈ 0.124 µM) | 0.2 µg/mL (≈ 0.495 µM) | 0.39 µg/mL (≈ 0.965 µM) | 19% | 12.3% | 9.2% | 40.5%
